Experimental findings from US20210395256A1, “TYROSINE KINASE INHIBITORS, COMPOSITIONS AND METHODS THERE OF” (Betta Pharmaceuticals Co., Ltd., priority 2018, published 2021) are described below.

The structures appear in SMILES notation. pIC50: −log10 of the molar value.

Sequence of TrkA kinase (P04629 33-796): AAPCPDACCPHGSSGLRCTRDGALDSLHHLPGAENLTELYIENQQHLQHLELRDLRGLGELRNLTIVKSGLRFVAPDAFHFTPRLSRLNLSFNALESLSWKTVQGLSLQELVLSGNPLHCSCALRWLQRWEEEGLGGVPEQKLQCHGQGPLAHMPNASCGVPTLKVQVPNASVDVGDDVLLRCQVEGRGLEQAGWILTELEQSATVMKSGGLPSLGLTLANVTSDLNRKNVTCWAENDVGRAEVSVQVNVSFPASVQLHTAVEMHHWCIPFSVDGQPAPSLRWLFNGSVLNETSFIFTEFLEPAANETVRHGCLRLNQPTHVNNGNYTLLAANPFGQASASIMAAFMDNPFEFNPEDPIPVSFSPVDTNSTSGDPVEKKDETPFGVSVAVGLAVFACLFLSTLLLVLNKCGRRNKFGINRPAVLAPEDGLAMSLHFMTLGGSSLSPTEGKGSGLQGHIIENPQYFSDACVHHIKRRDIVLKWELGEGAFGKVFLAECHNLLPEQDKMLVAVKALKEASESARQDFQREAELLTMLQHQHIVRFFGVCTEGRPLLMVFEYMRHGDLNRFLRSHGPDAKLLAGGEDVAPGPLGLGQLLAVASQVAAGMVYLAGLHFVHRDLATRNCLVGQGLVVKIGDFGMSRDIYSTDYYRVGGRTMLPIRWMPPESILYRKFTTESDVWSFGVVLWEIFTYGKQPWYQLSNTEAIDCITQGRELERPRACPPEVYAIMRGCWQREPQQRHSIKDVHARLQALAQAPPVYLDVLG

For the first assay, the target named is TrkA kinase (Homo sapiens, UniProt P04629). The assay is described as follows: TrkA kinase assay (mobility shift assay). The assay is classed as biochemical. Conditions: class symbols; read-out: Trk A Kinase IC50. On the procedure:
Example 201 TrkA Kinase Assay
Mobility shift assay was used to determine the inhibitory activity of compounds against TrkA kinase. Assay procedures are as follows:
1× Kinase base buffer (50 mM HEPES, pH 7.5; 0.0015% Brij-35)
Stop buffer (100 mM HEPES, pH 7.5; 0.015% Brij-35; 0.2% Coating Reagent #3; 50 mM EDTA)
1) Dilute the compound to 50× of the final desired highest inhibitor concentration in reaction by 100% DMSO. Transfer 100 μl of this compound dilution to a well in a 96-well plate.
2) For all compounds, transfer the compound in tubes to one well on 96-well storage plate and serially dilute the compound by transferring 30 μl to 60 μl of 100% DMSO in the next well and so forth for a total of 10 concentrations.
3) Add 100 μl of 100% DMSO to two empty wells for no compound control and no enzyme control in the same 96-well plate. Mark the plate as source plate.
4) Prepare intermediate plate
Transfer 10 μl of compound from source plate to a new 96-well plate as the intermediate plate
Add 90 µl of 1× kinase buffer to each well of the intermediate plate.
Mix the compounds in intermediate plate for 10 min on shaker.
1) Transfer 5 μl of each well from the 96-well intermediate plate to a 384-well plate in duplicates. For example, A1 of the 96-well plate is transferred to A1 and A2 of the 384-well plate. A2 of the 96-well plate is transferred to A3 and A4 of the 384-well plate, and so on.
1) Prepare 2.5× enzyme solution
Add kinase in 1× kinase base buffer.
2) Prepare 2.5× peptide solution Add FAM-labeled peptide and ATP in the 1× kinase base buffer.
3) Assay plate already contains 5 μl of compound in 10% DMSO.
4) Transfer 2.5× enzyme solution to the assay plate
Add 10 μl of 2.5× enzyme solution to each well of the 384-well assay plate.
5) Incubate at room temperature for 10 min.
6) Transfer 2.5× peptide solution to the assay plate
Add 10 μl of 2.5× peptide solution to each well of the 384-well assay plate.
Kinase reaction conditions are shown as Table 11:
7) Kinase reaction and stop
Incubate at 28° C. for specified period of time.
Add 25 μl of stop buffer to stop reaction.
1) Copy conversion data from Caliper program.
2) Convert conversion values to inhibition values.
Percent inhibition=(max-conversion)/(max-min)*100.
“max” stands for DMSO control; “min” stands for low control.
3) Fit the data in XLFit excel add-in version 5.4.0.8 to obtain IC50 values.
Equation used is: Y=Bottom+(Top-Bottom)/(1+(IC50/X)^HillSlope)
Usually pIC50 stands for −log10 of the IC50, conventionally taken in molar units. In the case of `Fc1ccc(F)c([C@H]2CCCN2c2ccn3ncc(-c4nc5cnccc5s4)c3n2)c1` [Compound 75, (R)-2-(5-(2-(2,5-difluorophenyl)pyrrolidin-1-yl)pyrazolo[1,5-a]pyrimidin-3-yl)thiazolo[4,5-c]pyridine], the pIC50 is at least 8.00.

For `Fc1ccc(F)c([C@H]2CCCN2c2ccn3ncc(-c4nc5cc6c(cc5[nH]4)OCCOCCOCCO6)c3n2)c1` [Compound 82, (R)-2-(5-(2-(2,5-difluorophenyl)pyrrolidin-1-yl)pyrazolo[1,5-a]pyrimidin-3-yl)-6,7,9,10,12,13-hexahydro-1H-[1,4,7,10]tetraoxacyclododecino[2′,3′:4,5]benzo[1,2-d]imidazole], the pIC50 was 7.30 to 8.00.

As for `Cn1c(-c2cnn3ccc(N4CCC[C@@H]4c4cc(F)ccc4F)nc23)nc2cc3c(cc21)OCCO3` [Compound 83, (R)-2-(5-(2-(2,5-difluorophenyl)pyrrolidin-1-yl)pyrazolo[1,5-a]pyrimidin-3-yl)-1-methyl-6,7-dihydro-1H-[1,4]dioxino[2′,3′:4,5]benzo[1,2-d]imidazole], the negative-log IC50 (pIC50) was below 7.30.

Regarding `COc1cc2nc(-c3cnn4ccc(N5CCC[C@@H]5c5cc(F)ccc5F)nc34)[nH]c2cc1C(=O)NO` [Compound 89, (R)-2-(5-(2-(2,5-difluorophenyl)pyrrolidin-1-yl)pyrazolo[1,5-a]pyrimidin-3-yl)-N-hydroxy-5-methoxy-1H-benzo[d]imidazole-6-carboxamide], the pIC50 is 7.30 to 8.00.

As to `CC(O)c1cc2nc(-c3cnn4ccc(N5CCC[C@@H]5c5cc(F)ccc5F)nc34)oc2cc1F` (stereo partly drawn) [Compound 93, 1-(2-(5-((R)-2-(2,5-difluorophenyl)pyrrolidin-1-yl)pyrazolo[1,5-a]pyrimidin-3-yl)-6-fluorobenzo[d]oxazol-5-yl)ethan-1-ol], the pIC50 was at least 8.00.

Staying with this assay, now noted: numeric values; read-out: Trk A Kinase IC50.
In the case of `Fc1ccc(F)c([C@H]2CCCN2c2ccn3ncc(-c4nc5cc(C(F)(F)F)ncc5[nH]4)c3n2)c1` [Compound 72, (R)-2-(5-(2-(2,5-difluorophenyl)pyrrolidin-1-yl)pyrazolo[1,5-a]pyrimidin-3-yl)-6-(trifluoromethyl)-3H-imidazo[4,5-c]pyridine], the pIC50 is 8.85.

Turning to `Fc1ccc(F)c([C@H]2CCCN2c2ccn3ncc(-c4nc5cnccc5o4)c3n2)c1` [Compound 73, (R)-2-(5-(2-(2,5-difluorophenyl)pyrrolidin-1-yl)pyrazolo[1,5-a]pyrimidin-3-yl)oxazolo[4,5-c]pyridine], the negative logarithm of the IC50 (pIC50) is 9.23.

For the compound `Fc1ccc(F)c([C@H]2CCCN2c2ccn3ncc(-c4nc5ccc(F)cc5[nH]4)c3n2)c1` [Compound 74, (R)-5-(2-(2,5-difluorophenyl)pyrrolidin-1-yl)-3-(6-fluoro-1H-benzo[d]imidazol-2-yl)pyrazolo[1,5-a]pyrimidine], the negative-log IC50 (pIC50) is 9.02.

Take `COc1ccc2nc(-c3cnn4ccc(N5CCC[C@@H]5c5cc(F)ccc5F)nc34)[nH]c2c1` [Compound 77, (R)-5-(2-(2,5-difluorophenyl)pyrrolidin-1-yl)-3-(6-methoxy-1H-benzo[d]imidazol-2-yl)pyrazolo[1,5-a]pyrimidine]: the pIC50 is 9.15.

For the compound `COc1cc2nc(-c3cnn4ccc(N5CCC[C@@H]5c5cc(F)ccc5F)nc34)[nH]c2cc1OC` [Compound 78, (R)-5-(2-(2,5-difluorophenyl)pyrrolidin-1-yl)-3-(5,6-dimethoxy-1H-benzo[d]imidazol-2-yl)pyrazolo[1,5-a]pyrimidine], the pIC50 was 9.14.

With `Fc1ccc(F)c([C@H]2CCCN2c2ccn3ncc(-c4nc5ccc(OC(F)F)cc5[nH]4)c3n2)c1` [Compound 81, (R)-3-(6-(difluoromethoxy)-1H-benzo[d]imidazol-2-yl)-5-(2-(2,5-difluorophenyl)pyrrolidin-1-yl)pyrazolo[1,5-a]pyrimidine], the pIC50 was 8.66.

As for `COc1ccc2nc(-c3cnn4ccc(N5CCC[C@@H]5c5cc(F)ccc5F)nc34)[nH]c2n1` [Compound 84, (R)-2-(5-(2-(2,5-difluorophenyl)pyrrolidin-1-yl)pyrazolo[1,5-a]pyrimidin-3-yl)-5-methoxy-3H-imidazo[4,5-b]pyridine], the pIC50 is 9.74.

With `COc1cc2[nH]c(-c3cnn4ccc(N5CCC[C@@H]5c5cc(F)ccc5F)nc34)nc2cn1` [Compound 85, (R)-2-(5-(2-(2,5-difluorophenyl)pyrrolidin-1-yl)pyrazolo[1,5-a]pyrimidin-3-yl)-6-methoxy-1H-imidazo[4,5-c]pyridine], the negative logarithm of the IC50 (pIC50) was 9.51.

Turning to `Cc1cc2[nH]c(-c3cnn4ccc(N5CCC[C@@H]5c5cc(F)ccc5F)nc34)nc2cn1` [Compound 86, (R)-2-(5-(2-(2,5-difluorophenyl)pyrrolidin-1-yl)pyrazolo[1,5-a]pyrimidin-3-yl)-6-methy1-1H-imidazo[4,5-c]pyridine], the pIC50 is 9.12.

In the case of `Nc1ncnc2nc(-c3cnn4ccc(N5CCC[C@@H]5c5cc(F)ccc5F)nc34)[nH]c12` [Compound 87, (R)-8-(5-(2-(2,5-difluorophenyl)pyrrolidin-1-yl)pyrazolo[1,5-a]pyrimidin-3-yl)-7H-purin-6-amine], the pIC50 is 9.14.

On to `Oc1ncnc2nc(-c3cnn4ccc(N5CCC[C@@H]5c5cc(F)ccc5F)nc34)[nH]c12` [Compound 88, (R)-8-(5-(2-(2,5-difluorophenyl)pyrrolidin-1-yl)pyrazolo[1,5-a]pyrimidin-3-yl)-7H-purin-6-ol], for which the pIC50 was 9.11.

Consider `COc1cc2nc(-c3cnn4ccc(N5CCC[C@@H]5c5cc(F)ccc5F)nc34)[nH]c2cc1C(N)=O` [Compound 91, (R)-2-(5-(2-(2,5-difluorophenyl)pyrrolidin-1-yl)pyrazolo[1,5-a]pyrimidin-3-yl)-5-methoxy-1H-benzo[d]imidazole-6-carboxamide], for which the pIC50 was 9.59.

Turning to `Fc1ccc(F)c([C@H]2CCCN2c2ccn3ncc(-c4nc5cccc(Cl)c5[nH]4)c3n2)c1` [Compound 97, (R)-3-(7-chloro-1H-benzo[d]imidazol-2-yl)-5-(2-(2,5-difluorophenyl)pyrrolidin-1-yl)pyrazolo[1,5-a]pyrimidine], the pIC50 was 8.72.

As for `Fc1ccc(F)c([C@H]2CCCN2c2ccn3ncc(-c4nc5cc(F)cc(Cl)c5[nH]4)c3n2)c1` [Compound 98, (R)-3-(7-chloro-5-fluoro-1H-benzo[d]imidazol-2-yl)-5-(2-(2,5-difluorophenyl)pyrrolidin-1-yl)pyrazolo[1,5-a]pyrimidine], the negative-log IC50 (pIC50) was 8.06.

For the compound `Cc1cncc2nc(-c3cnn4ccc(N5CCC[C@@H]5c5cc(F)ccc5F)nc34)[nH]c12` [Compound 99, (R)-2-(5-(2-(2,5-difluorophenyl)pyrrolidin-1-yl)pyrazolo[1,5-a]pyrimidin-3-yl)-7-methyl-1H-imidazo[4,5-c]pyridine], the negative logarithm of the IC50 (pIC50) is 9.30.

On to `COc1cccc2oc(-c3cnn4ccc(N5CCC[C@@H]5c5cc(F)ccc5F)nc34)nc12` [Compound 100, (R)-2-(5-(2-(2,5-difluorophenyl)pyrrolidin-1-yl)pyrazolo[1,5-a]pyrimidin-3-yl)-4-methoxybenzo[d]oxazole], for which the negative-log IC50 (pIC50) was 9.00.

As for `Fc1ccc(F)c([C@H]2CCCN2c2ccn3ncc(-c4nc5ncc(Cl)c(Cl)c5[nH]4)c3n2)c1` [Compound 102, (R)-6,7-dichloro-2-(5-(2-(2,5-difluorophenyl)pyrrolidin-1-yl)pyrazolo[1,5-a]pyrimidin-3-yl)-1H-imidazo[4,5-b]pyridine], the negative logarithm of the IC50 (pIC50) was 8.15.

For `Cc1nccc2nc(-c3cnn4ccc(N5CCC[C@@H]5c5cc(F)ccc5F)nc34)[nH]c12` [Compound 103, (R)-2-(5-(2-(2,5-difluorophenyl)pyrrolidin-1-yl)pyrazolo[1,5-a]pyrimidin-3-yl)-4-methyl-3H-imidazo[4,5-c]pyridine], the pIC50 was 8.92.

`Fc1ccc(F)c([C@H]2CCCN2c2ccn3ncc(-c4nc5c(Cl)ccc(Cl)c5[nH]4)c3n2)c1` [Compound 104, (R)-3-(4,7-dichloro-1H-benzo[d]imidazol-2-yl)-5-(2-(2,5-difluorophenyl)pyrrolidin-1-yl)pyrazolo[1,5-a]pyrimidine]: the negative logarithm of the IC50 (pIC50) was 7.87.

In the case of `Fc1ccc(F)c([C@H]2CCCN2c2ccn3ncc(-c4nc5cc(Cl)c(Cl)cc5[nH]4)c3n2)c1` [Compound 105, (R)-3-(5,6-dichloro-1H-benzo[d]imidazol-2-yl)-5-(2-(2,5-difluorophenyl)pyrrolidin-1-yl)pyrazolo[1,5-a]pyrimidine], the pIC50 was 7.48.
